From ChEMBL document CHEMBL2424548, “Substrate-based peptidomimetic inhibitors of the Murray Valley encephalitis virus NS2B/NS3 serine protease: a P1-P4 SAR study” (Eur J Med Chem, 2013)
Non-standard residues stand in square brackets, D forms with d. Residues, ends and D or L forms follow the SMILES beside them. *: point of attachment. hArg = N=C(N)NCCCC[C@H](N)C(=O)O; Agmatine = N=C(N)NCCCCN*; Nle = CCCC[C@H](N)C(=O)O

Tests used:
[1] = Inhibition of Murray Valley encephalitis virus NS2B/NS3 protease using Pyr-RTKR-AMC as substrate after 1 hr by fluorescence assay
[2] = Chemical stability of the compound at 100 uM after 2 hrs in presence of MVEV NS2B/NS3 protease; assay type: physicochemical
Prothrombin = Prothrombin (Homo sapiens, UniProt P00734); assay: Inhibition of human thrombin after 1 hr by fluorescence assay
[3] = Competitive inhibition of Murray Valley encephalitis virus NS2B/NS3 protease using Pyr-RTKR-AMC as substrate after 1 hr by Lineweaver-Burk plot analysis

CC(=O)N[C@@H](CCCCN)C(=O)N[C@@H](CCCCN)C(=O)NCCCCCN
IC50 [1]: > 100 µM

CCCC(=O)N[C@@H](CCCCN)C(=O)N[C@@H](CCCCN)C(=O)NCCCCNC(=N)N
IC50 [1]: 50.9 µM

CCCC[C@H](NC(=O)[C@H](CCCCN)NC(C)=O)C(=O)NCCCCNC(=N)N (Ac-Lys-[Nle]-Agmatine)
IC50 [1]: > 100 µM

Cc1ccccc1CC(=O)N[C@@H](CCCCN)C(=O)N[C@@H](CCCCN)C(=O)NCCCCNC(=N)N
IC50 [1]: 60.5 µM

CC(=O)N[C@@H](CCCCN)C(=O)N[C@@H](CCCCN)C(=O)NN
IC50 [1]: > 100 µM

N=C(N)NCCCCNC(=O)[C@H](CCCCN)NC(=O)[C@H](CCCCN)NC(=O)Cc1ccc(-c2ccccc2)cc1
IC50 [1]: 18.4 µM

CC(=O)N[C@@H](CCCCN)C(=O)N[C@@H](CCCCN)C(=O)NC/C=C/CNC(=N)N
IC50 [1]: 58.3 µM

CCCC[C@H](NC(C)=O)C(=O)N[C@@H](CCCCN)C(=O)NCCCCNC(=N)N (Ac-[Nle]-Lys-Agmatine)
IC50 [1]: 45.2 µM

CCC(=O)N[C@@H](CCCCN)C(=O)N[C@@H](CCCCN)C(=O)NCCCCNC(=N)N
IC50 [1]: 49.1 µM

CC(=O)N[C@@H](CCCCN)C(=O)N[C@@H](CCCCN)C(=O)N[C@H]1CC[C@@H](NC(=N)N)CC1
IC50 [1]: > 100 µM

CC(C)CC(=O)N[C@@H](CCCCN)C(=O)N[C@@H](CCCCN)C(=O)NCCCCNC(=N)N
IC50 [1]: 69.3 µM

CC(C)C(=O)N[C@@H](CCCCN)C(=O)N[C@@H](CCCCN)C(=O)NCCCCNC(=N)N
IC50 [1]: 81.7 µM

CC(=O)N[C@@H](CCCCN)C(=O)N[C@@H](CCCCN)C(=O)NCC1CCN(C(=N)N)CC1
IC50 [1]: 9.2 µM

N=C(N)NCCCCNC(=O)[C@H](CCCCN)NC(=O)[C@H](CCCCN)NC(=O)Cc1ccccc1
IC50 [1]: 16.3 µM

CC(=O)N[C@@H](CCCCN)C(=O)N[C@@H](CCCCN)C(=O)NCCCCNC(=N)N
IC50 [1]: 16.8 µM

CC(=O)N[C@@H](CCCCN)C(=O)N[C@@H](CCCCN)C(=O)NC/C=C\CNC(=N)N
IC50 [1]: > 100 µM

N=C(N)NCCCCNC(=O)[C@H](CCCCN)NC(=O)[C@H](CCCCN)NC(=O)c1ccccc1
IC50 [1]: 32.3 µM

CCCCNC(=O)[C@H](CCCCN)NC(=O)[C@H](CCCCN)NC(C)=O
IC50 [1]: > 100 µM

CC(=O)N[C@@H](CCCCN)C(=O)N[C@@H](CCCCN)C(=O)NCCCCN
IC50 [1]: > 100 µM

CC(=O)N[C@@H](CCCCN)C(=O)N[C@@H](CCCCN)C(=O)NCCCCCCN
IC50 [1]: > 100 µM

Cc1cccc(CC(=O)N[C@@H](CCCCN)C(=O)N[C@@H](CCCCN)C(=O)NCCCCNC(=N)N)c1
IC50 [1]: 15.7 µM

CC(=O)N[C@@H](CCCCN)C(=O)N[C@@H](CCCCN)C(=O)NCC#CCNC(=N)N
IC50 [1]: 12.7 µM

N=C(N)NCCCCNC(=O)[C@H](CCCCN)NC(=O)[C@H](CCCCN)NC(=O)Cc1cccc(-c2ccccc2)c1
IC50 [1]: 9.1 µM

CC(C)(C)C(=O)N[C@@H](CCCCN)C(=O)N[C@@H](CCCCN)C(=O)NCCCCNC(=N)N
IC50 [1]: > 100 µM

CC(=O)N[C@@H](CCCCNC(=N)N)C(=O)N[C@@H](CCCCN)C(=O)NCCCCNC(=N)N (Ac-[hArg]-Lys-Agmatine)
IC50 [1]: 31.4 µM

CC(=O)N[C@@H](CCCCN)C(=O)N[C@@H](CCCCN)C(=O)NCCCNC(=N)N
IC50 [1]: > 100 µM

N=C(N)NCCCCNC(=O)[C@H](CCCCN)NC(=O)[C@@H](N)CCCCN
IC50 [1]: > 100 µM

N=C(N)NCCCCNC(=O)[C@H](CCCCN)NC(=O)[C@H](CCCCN)NC(=O)CCc1ccccc1
IC50 [1]: 30.7 µM

CC(=O)N[C@@H](CCCCN)C(=O)N[C@@H](CCCCN)C(=O)NCCCCNC(N)=O
IC50 [1]: > 100 µM

Cc1ccc(CC(=O)N[C@@H](CCCCN)C(=O)N[C@@H](CCCCN)C(=O)NCCCCNC(=N)N)cc1
IC50 [1]: 15.2 µM

N=C(N)NCCCCNC(=O)[C@H](CCCCN)NC(=O)[C@H](CCCCN)NC(=O)Cc1ccccc1Cl
IC50 [1]: 54 µM

N=C(N)N1CCC(CNC(=O)[C@H](CCCCN)NC(=O)[C@H](CCCCN)NC(=O)Cc2cccc(-c3ccccc3)c2)CC1
Stability [2]: Stable
IC50 (Prothrombin): > 100 µM
Ki [3]: 2.5 µM
IC50 [1]: 4.9 µM

N=C(N)NCCCCNC(=O)[C@H](CCCCN)NC(=O)[C@H](CCCCN)NC(=O)Cc1ccc(Cl)cc1
IC50 [1]: 14.1 µM

CC(=O)N[C@@H](CCCCN)C(=O)N[C@@H](CCCCNC(=N)N)C(=O)NCCCCNC(=N)N (Ac-Lys-[hArg]-Agmatine)
IC50 [1]: 79.2 µM

N=C(N)NCCCCNC(=O)[C@H](CCCCN)NC(=O)[C@H](CCCCN)NC(=O)Cc1cccc(Cl)c1
IC50 [1]: 53.9 µM

CC(=O)N[C@@H](CCCCN)C(=O)N[C@@H](CCCCN)C(=O)NCCCCCNC(=N)N
IC50 [1]: 75.7 µM

N=C(N)NCCCCNC(=O)[C@H](CCCCN)NC(=O)[C@H](CCCCN)NC(=O)c1ccc2ccccc2c1
IC50 [1]: 24 µM

N=C(N)NCCCCNC(=O)[C@H](CCCCN)NC(=O)[C@H](CCCCN)NC(=O)c1cccc2ccccc12
IC50 [1]: 28.3 µM
